What all share (assay): Cell proliferation, CTG 3D, 7 d
Holding throughout (assay type): cell-based

For one assay, the system named is HCT-8. To be noted: Homo sapiens. Put shortly: (§1)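 Cells were seeded in ultra-low-adhesion round-bottom plates and grown as spheroids at 37° C, 5% CO2, then treated the next day with compound across 9 doses (3-fold dilution, 0.2% DMSO) for 7 days. Viability was read by CellTiter-Glo 3D luminescence after 30 min shaking; relative IC50 came from curve fits.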
For a further assay, the system named is SK-MEL-2. To be noted: Homo sapiens. In a few lines: as §1
The test system of the next assay is RERF-LC-Ad1. To be noted: Homo sapiens. In a few lines: as §1
The test system of the next assay is GP2d. To be noted: Homo sapiens, KRAS (G12D). In a few lines: as §1
A further assay deals with TOV-21G. To be noted: Homo sapiens, TOV21G. Put shortly: as §1
The next assay concerns ONS-76. To be noted: Homo sapiens. In a few lines: as §1
For the next assay, the system named is NCI-H838. Particulars: Homo sapiens; NCI-H838, KRAS (WT ampl). In a few lines:
as §1

The next assay has as its system Hs-766T. Particulars: Homo sapiens, Hs766T. In a few lines: as §1
In another assay the test system is NCI-H929. To be noted: Homo sapiens. In a few lines:
as §1

A further assay deals with BEN. To be noted: Homo sapiens, KRAS (WT ampl). In a few lines: as §1
The subject of another assay is SKM-1. Particulars: Homo sapiens. In a few lines:
as §1

A further assay deals with NCI-H1573. Particulars: Homo sapiens. Put shortly: as §1
The subject of the next assay is KURAMOCHI
To be noted: Homo sapiens, KRAS (WT ampl). In a few lines:
as §1

The test system of another assay is HT1080. Particulars: Homo sapiens, HT-1080. Put shortly: as §1
The subject of another assay is RCM-1. To be noted: Homo sapiens; RCM-1, KRAS (G12V). Put shortly:
as §1

For another assay, the system named is CFPAC-1. To be noted: Homo sapiens; CFPAC-1, KRAS (G12V). In a few lines: as §1
In a further assay the test system is HPAC. To be noted: Homo sapiens, KRAS (G12D). In a few lines:
as §1

Another assay has as its system HT-1197. To be noted: Homo sapiens, HT1197. Put shortly:
as §1

In another assay the test system is Toledo. To be noted: Homo sapiens. Put shortly:
as §1

The subject of another assay is MDA-MB-231. Particulars: Homo sapiens. In a few lines:
as §1

A further assay has as its system KNS-62. To be noted: Homo sapiens. In a few lines:
as §1

Where two headings read alike, the source gives them in different places.

As usually defined, the IC50 is the concentration needed to halve the response being measured.

Consider `CCn1c(-c2cc(N3CCN(C)CC3)cnc2[C@H](C)OC)c2c3cc(ccc31)-c1csc(n1)C[C@H](NC(=O)[C@H]1C[C@@H]1C)C(=O)N1CCC[C@H](N1)C(=O)OCC(C)(C)O2` [Example A122, reference compound], for which the IC50 was 69 nM with HCT-8 (HCT-8); 3 nM in the assay with SK-MEL-2 (SK-MEL-2); 0.22 nM in the assay with RERF-LC-Ad1; 0.55 nM in the assay with GP2d; 33 nM in the assay on TOV-21G; 2.1 nM in the assay with ONS-76 (ONS-76). Further, the IC50 in the assay with NCI-H838 was 100 nM; in the assay with Hs-766T, 100 nM; with NCI-H929 (NCI-H929), 8.7 nM; in the assay with BEN, 43 nM; in the assay with SKM-1 (SKM-1) it was 1.3 nM; in the assay with NCI-H1573 (NCI-H1573), 1.2 nM. Moreover, the IC50 amounted to 100 nM in the assay on KURAMOCHI; 0.49 nM in the assay with HT1080; 6.5 nM in the assay with RCM-1; 1.1 nM with CFPAC-1; 0.3 nM in the assay on HPAC; 2.5 nM in the assay on HT-1197. The half-maximal inhibitory concentration (IC50) with Toledo was determined as 100 nM; with MDA-MB-231 (MDA-MB-231) it was 20 nM; with KNS-62 (KNS-62), 6.4 nM.
For the compound `CO[C@@H](C)c1ncc(N2CCN(C)CC2)cc1-c1c2c3cc(cc4c3n1CCC4)-c1csc(n1)C[C@H](NC(=O)[C@H]1[C@H](C)[C@@H]1C)C(=O)N1CCC[C@H](N1)C(=O)OCC(C)(C)C2` (atropisomer, axis not shown; (M)) [Example 24, (1r,2R,3S)-N-[(7S,13S)-(20M)-20-[2-[(1S)-1-methoxyethyl]-5-(4-methylpiperazin-1-yl)-3-pyridyl]-17,17-dimethyl-8,14-dioxo-15-oxa-4-thia-9,21,30,31-tetrazahexacyclo[23.3.1.1^2,5.1^9,13.0^19,27.0^21,26]hentriaconta-1 (28),2,5 (31), 19,25 (29),26-hexaen-7-yl]-2,3-dimethyl-cyclopropanecarboxamide], the IC50 in the assay on HCT-8 (HCT-8, KRAS (G13D), read-out: IC50) turned out to be 80 nM; in the assay with SK-MEL-2 (SK-MEL-2, NRAS (p.Q61R), read-out: IC50), 2 nM; in the assay with RERF-LC-Ad1 (RERF-LC-Ad1, KRAS (G12A), read-out: IC50), 0.3 nM; with GP2d it was 0.63 nM; in the assay on TOV-21G (TOV-21G, KRAS (G13C), read-out: IC50), 4.9 nM; in the assay on ONS-76 (ONS-76, NRAS (p.Q61R), read-out: IC50) it was 0.9 nM. In addition, the IC50 was determined as 100 nM with NCI-H838; 100 nM in the assay with Hs-766T (Hs-766T, KRAS (Q61H), read-out: IC50); 7.3 nM in the assay on NCI-H929 (NCI-H929, NRAS (p.G13D), read-out: IC50); 40 nM with BEN; 0.93 nM with SKM-1 (SKM-1, KRAS (K117N), read-out: IC50); 0.82 nM with NCI-H1573 (NCI-H1573, KRAS (G12A), read-out: IC50). Moreover, the IC50 amounted to 100 nM with KURAMOCHI; 0.36 nM with HT1080 (HT1080, NRAS (p.Q61K), read-out: IC50); 2.2 nM with RCM-1; 0.54 nM in the assay on CFPAC-1; 0.31 nM with HPAC; 1.4 nM in the assay on HT-1197 (HT-1197, NRAS (p.Q61R), read-out: IC50). The IC50 worked out at 100 nM with Toledo (KRAS (G13D), read-out: IC50); 27 nM in the assay with MDA-MB-231 (MDA-MB-231, KRAS (G13D), read-out: IC50); 2.6 nM in the assay on KNS-62 (KNS-62, HRAS (p.Q61L), read-out: IC50).

Source of the values: patent US20240417410A1, “TRICYCLIC COMPOUNDS FOR THE TREATMENT OF CANCER” (Hoffmann-La Roche Inc., priority 2023, published 2024).
